Some results are limits rather than exact numbers.

Usually IC50 stands for the concentration that gives 50% inhibition. A higher IC50 goes with lower potency. One may read the EC50 as the midpoint of the concentration-response curve.

The subject of one series is HER2. Kind of series: Her2 degradation assay with BT-474 cell line (Example 12, FACS). The class given is cell-based, human. Particulars: BT-474 cells. The text has this: HER2 has emerged as a key target for anticancer drugs due to its intrinsic involvement in the phosphatidylinositol-3-kinase-Akt/proteinkinase B (PI3K-Akt) and the mitogen-activated protein kinase (MAPK) pathways, both of which suppress apoptosis and promote tumor cell survival, gene transcription, angiogenesis, cellular proliferation, migration, mitosis, and differentiation. The degradation of HER2 is a measure of efficacy of anticancer therapeutics that target Hsp90. Accordingly, the SDC-TRAP molecules of the invention that comprise a binding moiety that binds Hsp90 were tested in the following HER2 degradation assay.
BT-474 cells (human breast cancer cell line ATCC HTB-20) were obtained from ATCC and seeded into 12-well tissue culture plates at 0.2×10^6/1.8 mL/well. […] Each test compound was titrated in 4-fold dilutions from 5 μM to 78 nM with DMSO and 200 μL of the titration was added to each well of the cell plate. The DMSO final concentration was 0.2%. Cells were incubated overnight at 37° C. in 5% CO2.
Media was decanted from the plate, cells were washed 1× in PBS. 400 μL trypsin (EDTA) per well was added and the cells were incubated for 2 to 3 minutes. […] The cytometer readout was normalized and the potency of each compound is evaluated with IC50 calculated with XL Fit software.
Compound `CC(C)c1cc(-c2nnc(O)n2-c2ccc(CN3CCN(C(=O)CCn4cc(F)c(=O)[nH]c4=O)CC3)cc2)c(O)cc1O` [SDC-TRAP-0049] returned an IC50 of over 5000 nM.

The target of another series is T1, Hsp90α (Homo sapiens, UniProt P07900).
T1 construct: purchased BPS Bioscience 50294
Kind of series: Hsp90α binding assay (fluorescence polarization, FITC-labeled geldanamycin). Particulars: read-out: Hsp90 binding EC50. As for the experimental part:
An Hsp90^α fluorescence assay kit from BPS Bioscience (Cat #50294) containing Hsp90 recombinant enzyme, FITC-labeled geldanamycin, assay buffer and a low binding 384-well plate was used to assay Hsp90^α binding. Dithiothreitol (DTT)(Cat #D0643) and bovine serum albumin (BSA)(Cat #A2153) were obtained from Sigma-Aldrich. Fluorescence polarization was measured using a PHERAstar microplate reader from BMG LABTECH GmbH, Ortenherg, Germany.
The compounds were diluted to 1 mM in DMSO and loaded into a compound dilution plate to make 3-fold dilutions yielding a total of 8 concentrations. 1 µL of compound was transferred from the dilution plate to the low binding assay plate provided in the assay kit. 5 mL of Hsp90^□ binding solution was prepared having a final concentration of 7 ng/µL Hsp90^□, 5 nM FITC-labeled geldanamycin, 2 mM DTT and 0.1 mg/mL BSA. 49 μL of binding solution was added to each microplate well, incubated at room temperature for 1 hour, then read using the PHERAstar microplate reader. The high control sample contained no compound plus Hsp90^α; the low control sample contained no compound and no Hsp90^α. […] The IC50 was calculated using GraphPad Prism 4 software.
(In general: Fluorescence polarisation rises when a labelled molecule tumbles more slowly, as on binding a larger partner.)
In the case of `CCc1c2c(nc3ccc(O)cc13)-c1cc3c(c(=O)n1C2)COC(=O)[C@@]3(CC)OC(=O)N1CCC(CCn2ccc3cc(-n4c(O)nnc4-c4cc(C(C)C)c(O)cc4O)ccc32)CC1` [SDC-TRAP-0064, (S)-4,11-diethyl-9-hydroxy-3,14-dioxo-3,4,12,14-tetrahydro-1H-pyrano[3′,4′:6,7]indolizino[1,2-b]quinolin-4-yl 4-(2-(5-(3-(2,4-dihydroxy-5-isopropylphenyl)-5-hydroxy-4H-1,2,4-triazol-4-yl)-1H-indol-1-yl)ethyl)piperidine-1-carboxylate], the EC50 stood at 122 nM.

Consider `CCc1c2c(nc3ccc(OC(=O)N4CCN(c5ccc(-n6c(O)nnc6-c6cc(C(C)C)c(O)cc6O)cc5)CC4)cc13)-c1cc3c(c(=O)n1C2)COC(=O)C3(O)CC` (stereo not drawn) [SDC-TRAP-0045, 4,11-diethyl-4-hydroxy-3,14-dioxo-3,4,12,14-tetrahydro-1H-pyrano[3′,4′:6,7]indolizino[1,2-b]quinolin-9-yl 4-(4-(3-(2,4-dihydroxy-5-isopropylphenyl)-5-hydroxy-4H-1,2,4-triazol-4-yl)phenyl)piperazine-1-carboxylate], for which the EC50 turned out to be 96.6 nM. `CCNC(=O)c1nnc(-c2cc(C(C)C)c(O)cc2O)n1-c1ccc(CN2CCC(C(=O)N3CCC(C(=O)N[C@H]4C[C@H](O[C@H]5C[C@](O)(C(=O)CO)Cc6c(O)c7c(c(O)c65)C(=O)c5c(OC)cccc5C7=O)O[C@@H](C)[C@H]4O)CC3)CC2)cc1` [SDC-TRAP-0198, 1-(1-(4-(3-(2,4-dihydroxy-5-isopropylphenyl)-5-(ethylcarbamoyl)-4H-1,2,4-triazol-4-yl)benzyl)piperidine-4-carbonyl)-N-((2S,3S,4S,6R)-3-hydroxy-2-methyl-6-(((1S,3S)-3,5,12-trihydroxy-3-(2-hydroxyacetyl)-10-methoxy-6,11-dioxo-1,2,3,4,6,11-hexahydrotetracen-1-yl)oxy)tetrahydro-2H-pyran-4-yl)piperidine-4-carboxamide]: the EC50 worked out at 93.3 nM. With `CCc1c2c(nc3ccc(OC(=O)N4CCC[C@H]4C(=O)N4CCN(c5ccc(-n6c(O)nnc6-c6cc(C(C)C)c(O)cc6O)cc5)CC4)cc13)-c1cc3c(c(=O)n1C2)COC(=O)[C@]3(O)CC` [SDC-TRAP-0204, (S)—(S)-4,11-diethyl-4-hydroxy-3,14-dioxo-3,4,12,14-tetrahydro-1H-pyrano[3′,4′:6,7]indolizino[1,2-b]quinolin-9-yl 2-(4-(4-(3-(2,4-dihydroxy-5-isopropylphenyl)-5-hydroxy-4H-1,2,4-triazol-4-yl)phenyl)piperazine-1-carbonyl)pyrrolidine-1-carboxylate], the EC50 came out at 82.6 nM. On to `CCc1c2c(nc3ccc(OC(=O)N4CCN(Cc5ccc(-n6c(O)nnc6-c6cc(C(C)C)c(O)cc6O)cc5)CC4)cc13)-c1cc3c(c(=O)n1C2)COC(=O)C3(O)CC` (stereo not drawn) [SDC-TRAP-0046, 4,11-diethyl-4-hydroxy-3,14-dioxo-3,4,12,14-tetrahydro-1H-pyrano[3′,4′:6,7]indolizino[1,2-b]quinolin-9-yl 4-(4-(3-(2,4-dihydroxy-5-isopropylphenyl)-5-hydroxy-4H-1,2,4-triazol-4-yl)benzyl)piperazine-1-carboxylate], for which the EC50 is 102 nM. As to `COc1cc(O)c(-c2nnc(C(=O)NC(C)C)n2-c2ccc(CN3CCC(C(=O)Nc4cccc5c4CN(C4CCC(=O)NC4=O)C5=O)CC3)cc2)cc1C(C)C` (stereo not drawn) [SDC-TRAP-0115, N-(2-(2,6-dioxopiperidin-3-yl)-1-oxoisoindolin-4-yl)-1-(4-(3-(2-hydroxy-5-isopropyl-4-methoxyphenyl)-5-(isopropylcarbamoyl)-4H-1,2,4-triazol-4-yl)benzyl)piperidine-4-carboxamide], the EC50 is 203 nM. Same read-out and setting: the same measure for `CC(C)c1cc(-c2nnc(O)n2-c2ccc(CC(=O)N(C)CCOC(=O)Nc3cccc4c3CN(C3CCC(=O)NC3=O)C4=O)cc2)c(O)cc1O` (stereo not drawn) [SDC-TRAP-0127, 2-(2-(4-(3-(2,4-dihydroxy-5-isopropylphenyl)-5-hydroxy-4H-1,2,4-triazol-4-yl)phenyl)-N-methylacetamido)ethyl(2-(2,6-dioxopiperidin-3-yl)-1-oxoisoindolin-4-yl)carbamate]: 102 nM.

For `CCNC(=O)c1nnc(-c2cc(C(C)C)c(O)cc2O)n1-c1ccc(OC2CCN(C(=O)[C@@H]3CCCN3C(=O)Oc3ccc4nc5c(c(CC)c4c3)Cn3c-5cc4c(c3=O)COC(=O)[C@]4(O)CC)CC2)cc1` [SDC-TRAP-0209], the EC50 is 54.6 nM. With `CCc1c2c(nc3ccc(OC(=O)N4CCC(CCn5ccc6cc(-n7c(O)nnc7-c7cc(C(C)C)c(O)cc7O)ccc65)CC4)cc13)-c1cc3c(c(=O)n1C2)COC(=O)[C@]3(O)CC` [SDC-TRAP-0063, 4,11-diethyl-4-hydroxy-3,14-dioxo-3,4,12,14-tetrahydro-1H-pyrano[3′,4′:6,7]indolizino[1,2-b]quinolin-9-yl 4-(2-(5-(3-(2,4-dihydroxy-5-isopropylphenyl)-5-hydroxy-4H-1,2,4-triazol-4-yl)-1H-indol-1-yl)ethyl)piperidine-1-carboxylate], the EC50 was determined as 157 nM. `CC(C)c1cc(-c2nnc(O)n2-c2ccc(CC3CCN(CC(=O)Nc4cccc5c4CN(C4CCC(=O)NC4=O)C5=O)CC3)cc2)c(O)cc1O` (stereo not drawn) [SDC-TRAP-0116, 2-(4-(4-(3-(2,4-dihydroxy-5-isopropylphenyl)-5-hydroxy-4H-1,2,4-triazol-4-yl)benzyl)piperidin-1-yl)-N-(2-(2,6-dioxopiperidin-3-yl)-1-oxoisoindolin-4-yl)acetamide]: the EC50 turned out to be 159 nM. As to `CCNC(=O)c1nnc(-c2cc(C(C)C)c(O)cc2O)n1-c1ccc(CN2CCC(C(=O)N3CCC(n4cc(-c5cnc(N)c(O[C@H](C)c6c(Cl)ccc(F)c6Cl)c5)cn4)CC3)CC2)cc1` [SDC-TRAP-0134, (R)-4-(4-((4-(4-(4-(6-amino-5-(1-(2,6-dichloro-3-fluorophenyl)ethoxy)pyridin-3-yl)-1H-pyrazol-1-yl)piperidine-1-carbonyl)piperidin-1-yl)methyl)phenyl)-5-(2,4-dihydroxy-5-isopropylphenyl)-N-ethyl-4H-1,2,4-triazole-3-carboxamide], the EC50 came to 95.4 nM. On to `CCc1c2c(nc3ccc(OC(=O)N4CCC[C@H]4C(=O)N4CCC(CCn5ccc6cc(-n7c(O)nnc7-c7cc(C(C)C)c(O)cc7O)ccc65)CC4)cc13)-c1cc3c(c(=O)n1C2)COC(=O)[C@]3(O)CC` [SDC-TRAP-0210], for which the EC50 amounted to 91 nM.

Another series has as its system MCF-7 breast cancer cells. As to the kind of experiment: Mouse xenograft efficacy in an MCF-7 breast cancer model. Type of series: in vivo. As to conditions: 150 or 100 mg/kg/1×wk IV, versus irinotecan alone or ganetespib + irinotecan. The procedure: MCF-7 breast cancer cells were purchased from ATCC. […] Fetal bovine serum was then be added to the medium. The final concentration of fetal bovine serum was 10%. Cells were cultured at 37° C. and 5% CO2.
Mice that were not put on treatment were euthanized. Animals were sourced through CRL (Wilmington, Mass.).
Consider `CCc1c2c(nc3ccc(OC(=O)N4CCC(CCn5ccc6cc(-n7c(O)nnc7-c7cc(C(C)C)c(O)cc7O)ccc65)CC4)cc13)-c1cc3c(c(=O)n1C2)COC(=O)[C@]3(O)CC` [SDC-TRAP-0063, 4,11-diethyl-4-hydroxy-3,14-dioxo-3,4,12,14-tetrahydro-1H-pyrano[3′,4′:6,7]indolizino[1,2-b]quinolin-9-yl 4-(2-(5-(3-(2,4-dihydroxy-5-isopropylphenyl)-5-hydroxy-4H-1,2,4-triazol-4-yl)-1H-indol-1-yl)ethyl)piperidine-1-carboxylate], for which the “Tumor growth suppression (tumor volume)” value is “greater tumor growth suppression than effector moiety irinotecan alone or unconjugated binding moiety ganetespib and effector moiety irinotecan administered together”.

Tested on in another series: not listed separately
Kind of series: Tissue distribution of ganetespib in female CD-1 nu/nu mice bearing RERF human NSCLC xenografts. The class given is in vivo, mouse. Particulars: 5 min time point. As for the experimental part:
Tissue Distribution of ganetespib in Female CD-1 nu/nu Mice Bearing RERF Human NSCLC Xenografts
To confirm the distribution of ganetespib in blood, livers, kidneys, brains, hearts, lungs and tumors after IV administration of ganetespib to female CD-1 nu/nu mice bearing RERF human NSCLC xenografts, and to examine metabolic profiles of ganetespib in plasma, red blood cells, and above tissues.
Animals: female CD-1 nu/nu mice bearing RERF human NSCLC xenografts (N=3/group)
Dosage: 50 mg/kg Dose level: 10 mL/kg Formulation: 10% DMSO, 18% Cremophor RH40, 3.6% dextrose solution (DRD) Bleeding time points: 5 min, 6, 24 hr Collected tissues: blood (plasma and red blood cells (RBC)), liver, kidneys, brain, heart, lung, tumor
Protein precipitation: 50 μL of 10 times diluted plasma or RBC+150 μL ACN (10 mM NH4OAc), vortexed and centrifuged at 10000 rpm for 8 min; 150 μL supernatant+150 μL water (10 mM NH4OAc)
Protein precipitation: 100 μL homogenized tissue (1:3 tissue:PBS buffer)+100 μL ACN (10 mM NH4OAc), vortexed and centrifuged at 10000 rpm for 8 min
(In general: Xenograft models place foreign cells or tissue in a host animal.)
As for `CC(C)c1cc(-c2n[nH]c(=O)n2-c2ccc3c(ccn3C)c2)c(O)cc1O` [ganetespib], the “Mean concentration in plasma relative to RBC (times higher)” value is “about 10”.

The values above are taken from US20140079636A1, “TARGETED THERAPEUTICS” (priority 2012, published 2014).
